Structures are written as SMILES.

The results in this text go back to patent US20220125838A1, “IMMUNOMODULATORY GLYCOSPHINGOLIPIDS AND METHODS OF USE THEREOF” (President and Fellows of Harvard College, priority 2019, published 2022).

This assay relates to NKT cells. Nature of the assay: In vivo cytokine assay (serum IL-2, IFN-γ, IL-4 after intraperitoneal injection). On the set-up: species or system mice. Conditions: 1 μg per mouse intraperitoneally. As for the experimental part: To investigate the relevance of structural variation to immunomodulatory function, an in vitro panel screening assay of synthetic BfaGCs was carried out in a co-culture system with bone marrow-derived dendritic cells (BMDCs) and NKT cells. Levels of interleukin 2 (IL-2) production in the presence of individual BfaGCs clearly distinguished two groups with different levels of NKT cell recognition: strong and weak stimulators (FIG. 3A). Strikingly, all 10 strong stimulators have branched (either ω-2 or ω-3) sphinganine chains, whereas none of 11 weak stimulators have such branching. […] These molecules were individually injected into mice (1 μg per mouse, intraperitoneally), and systemic levels of cytokines were quantified and directly compared to those in mice injected with KRN7000 (a prototypic Th1 agonist) and mice injected with OCH (a Th2 agonist). Serum IL-2 levels 2 h after injection show trends consistent with in vitro results (KRN7000>SB2217>SB2219), which implies that BfaGCs are also functioning in vivo (FIG. 3B). […] Although It is well established that aGCs with very long fatty acyl chains (e.g., KRN7000, which has a C26 saturated chain) selectively induce Th1-type cytokines and that shorter-sphingoid-chain aGCs (e.g., OCH, which has a C8 saturated chain) skew toward Th2, aGCs with acyl and sphingoid chain lengths of long-chain fatty acids (C15-C19), prominently identified in B. fragilis, are less well investigated (21).
Mice (n=4 per group) were given 100 uL of KRN7000, OCH, SB2217 or SB2219 solution (1 ug, 0.9% DMSO in PBS) intraperitoneally. Animals were bled at 2 hours after injection from tail vein (˜100 uL per animal). At 18 hours after injection, animals were euthanized and second 100 uL blood was drawn by cardiac puncture. Fresh blood was collected to Z-Gel tubes (Sarstedt) to form blood clot and spun at 10,000×g for 5 minutes for serum separation. Samples were frozen at −80 degree until analysis by multiplex ELISA (Eve Technologies, Calgary, Canada).

[1] abbreviates: serum at observed time points (2 and 18 hours).

For the compound `CCCCCCCCCCCCCCCCCCCCCCCCCC(=O)N[C@@H](CO[C@H]1O[C@H](CO)[C@H](O)[C@H](O)[C@H]1O)[C@H](O)[C@H](O)CCCCCCCCCCCCCC` [KRN7000], for the setting “2 h after injection”, the “serum IL-2 level” value is on record as “KRN7000>SB2217>SB2219”. Moreover, under setting [1], the “Th1 cytokine (IFN-γ) induction in vivo” value was “stimulates IFN-gamma”.

For the compound `CCCCCCCCCCCCCCCCCCCCCCCC(=O)N[C@@H](CO[C@H]1O[C@H](CO)[C@H](O)[C@H](O)[C@H]1O)[C@H](O)[C@H](O)CCCCC` [OCH], the “Th2 cytokine (IL-4) induction in vivo” value under setting [1] is given as “stimulates IL-4”.
